Structures can show the parent of a compound that is named as a salt.
molecular target: T1, rat TRPV1 (Rattus norvegicus (Rat), UniProt O35433); assay: not given; details: read-out: Rat IC50
T1 sequence (O35433 whole entry): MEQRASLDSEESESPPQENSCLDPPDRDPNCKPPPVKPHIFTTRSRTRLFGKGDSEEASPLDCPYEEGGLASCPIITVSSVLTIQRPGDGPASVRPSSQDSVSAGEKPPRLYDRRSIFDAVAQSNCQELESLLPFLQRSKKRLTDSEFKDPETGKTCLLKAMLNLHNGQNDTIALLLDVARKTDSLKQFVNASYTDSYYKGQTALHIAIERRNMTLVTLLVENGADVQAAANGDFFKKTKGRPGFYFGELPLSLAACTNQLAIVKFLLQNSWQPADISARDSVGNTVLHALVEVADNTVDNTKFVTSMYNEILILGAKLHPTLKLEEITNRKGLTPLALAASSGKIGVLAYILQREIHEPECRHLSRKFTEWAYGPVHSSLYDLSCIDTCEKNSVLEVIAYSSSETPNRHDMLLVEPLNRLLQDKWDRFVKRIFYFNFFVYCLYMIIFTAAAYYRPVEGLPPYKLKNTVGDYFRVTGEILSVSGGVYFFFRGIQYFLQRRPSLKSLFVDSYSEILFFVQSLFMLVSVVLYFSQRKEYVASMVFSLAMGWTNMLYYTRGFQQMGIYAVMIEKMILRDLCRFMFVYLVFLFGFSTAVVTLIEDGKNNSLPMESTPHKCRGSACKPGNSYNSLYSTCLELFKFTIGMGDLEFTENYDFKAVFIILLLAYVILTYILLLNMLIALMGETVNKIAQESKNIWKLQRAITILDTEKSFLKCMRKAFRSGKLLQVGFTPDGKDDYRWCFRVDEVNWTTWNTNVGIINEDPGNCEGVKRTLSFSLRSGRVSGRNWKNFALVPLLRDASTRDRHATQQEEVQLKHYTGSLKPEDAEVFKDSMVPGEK

| SMILES | IC50 [nM] |
| --- | --- |
| CN(C)S(=O)(=O)c1ccc(Nc2nc(N3CCOCC3)nc3c2CCN(c2ncccc2C(F)(F)F)CC3)cc1 [Example 379, N,N-Dimethyl-4-({2-morpholin-4-yl-7-[3-(trifluoromethyl)pyridin-2-yl]-6,7,8,9-tetrahydro-5H-pyrimido[4,5-d]azepin-4-yl}amino)benzenesulfonamide] | 70 |
| Cc1cc(C(F)(F)F)ccc1Nc1nc(N2CCOC(CO)C2)nc2c1CCN(c1ncccc1C(F)(F)F)CC2 (stereo not shown) [Example 273, [4-(4-{[2-Methyl-4-(trifluoromethyl)phenyl]amino}-7-[3-(trifluoromethyl)pyridin-2-yl]-6,7,8,9-tetrahydro-5H-pyrimido[4,5-d]azepin-2-yl)morpholin-2-yl]methanol] | 680 |
| FC(F)(F)c1ccc(Nc2nc(N3CCSCC3)nc3c2CCN(c2ncccc2C(F)(F)F)CC3)cc1 [Example 100, [2-Thiomorpholin-4-yl-7-(3-trifluoromethyl-pyridin-2-yl)-6,7,8,9-tetrahydro-5H-pyrimido[4,5-d]azepin-4-yl]-(4-trifluoromethyl-phenyl)-amine] | 31 |
| CC(C)c1nc2c(c(Nc3ccc(C(F)(F)F)c(F)c3)n1)CCN(c1ncccc1C(F)(F)F)CC2 [Example 140, N-[3-Fluoro-4-(trifluoromethyl)phenyl]-2-(1-methylethyl)-7-[3-(trifluoromethyl)pyridin-2-yl]-6,7,8,9-tetrahydro-5H-pyrimido[4,5-d]azepin-4-amine] | 190 |

same assay, conditions: read-out: Rat IC50; hydrochloride salt

| SMILES | IC50 [nM] |
| --- | --- |
| CC(C)c1nc2c(c(Nc3ccc(C(F)(F)F)cn3)n1)CCN(c1ncccc1C(F)(F)F)CC2 [Example 20A, [2-Isopropyl-7-(3-trifluoromethyl-pyridin-2-yl)-6,7,8,9-tetrahydro-5H-pyrimido[4,5-d]azepin-4-yl]-(5-trifluoromethyl-pyridin-2-yl)-amine hydrochloride salt] | 250 |

molecular target: T1, rat TRPV1; assay: cell-based; details: Rat IC50 (μM)

| SMILES | IC50 [µM] |
| --- | --- |
| CC(C)c1nc2c(c(Nc3ccc(Br)cc3)n1)CCN(c1ncccc1C(F)(F)F)CC2 [Example 46, (4-Bromo-phenyl)-[2-isopropyl-7-(3-trifluoromethyl-pyridin-2-yl)-6,7,8,9-tetrahydro-5H-pyrimido[4,5-d]azepin-4-yl]-amine] | 0.38 |
| Cc1nc(-c2nc3c(c(Nc4ccc(C(F)(F)F)cc4)n2)CCN(c2ncccc2C(F)(F)F)CC3)cs1 [Example 153, 2-(2-Methyl-1,3-thiazol-4-yl)-N-[4-(trifluoromethyl)phenyl]-7-[3-(trifluoromethyl)pyridin-2-yl]-6,7,8,9-tetrahydro-5H-pyrimido[4,5-d]azepin-4-amine trifluoroacetic acid salt] | 0.14 |
| FC(F)(F)c1ccc(Nc2nc(NC3CCOC3)nc3c2CCN(c2ncccc2C(F)(F)F)CC3)cc1 (stereo not shown) [Example 265, N^2-(Tetrahydro-furan-3-yl)-N^4-(4-trifluoromethyl-phenyl)-7-(3-trifluoromethyl-pyridin-2-yl)-6,7,8,9-tetrahydro-5H-pyrimido[4,5-d]azepine-2,4-diamine trifluoroacetic acid salt] | 0.39 |
| CC(C)(C)c1ccc(Nc2nc(C(C)(C)C)nc3c2CCN(c2ncccc2C(F)(F)F)CC3)cc1 [Example 138, 2-(1,1-Dimethylethyl)-N-[4-(1,1-dimethylethyl)phenyl]-7-[3-(trifluoromethyl)pyridin-2-yl]-6,7,8,9-tetrahydro-5H-pyrimido[4,5-d]azepin-4-amine] | 0.03 |
| COC(=O)c1cnc(N2CCc3nc(S(C)(=O)=O)nc(Nc4ccc(C(F)(F)F)cc4)c3CC2)c(Cl)c1 [Example 211, Methyl 5-chloro-6-[2-(methylsulfonyl)-4-{[4-(trifluoromethyl)phenyl]amino}-5,6,8,9-tetrahydro-7H-pyrimido[4,5-d]azepin-7-yl]pyridine-3-carboxylate] | 11.4 |

— patent US9422293B2 (priority 2006, dated 2016)
